Assay results published in patent US10323016B2, “Imidazol- or 1,2,4-triazol-derivatives and their use” (UNIVERSITE DE LILLE 2 DROIT ET SANTE, priority 2014, dated 2019).

Legend:
[1] = target: hTGR5 (Homo sapiens (Human), UniProt Q8TDU6); test: TGR5/CRE Luciferase Assay (hTGR5); assay type: cell-based; conditions: for EC50: HEK 293 cells transiently co-transfected with pCMV tag4b-TGR5h and pCRE TA-Luciferase reporter, overnight incubation; for hTGR5 % trans: HEK 293 luciferase reporter, percentage of the 10 μM LCA value
Protocol: (§1) TGR5/CRE Luciferase Assay
(§2) In the following tables TGR5 activation by compounds and subsequent increase in intracellular cAMP were evaluated using a luciferase reporter gene assay. Human embryonic kidney (HEK) 293 cells were transiently co-transfected with pCMV tag4b-TGR5 h (to follow hTGR5 activation) or pCMV AC6-TGR5m (to follow mTGR5 activation) expression plasmids and the pCRE TA-Luciferase reporter plasmid using the JET PEI reagent (Polyplus transfection). Transfected cells were seeded in 96-well plates and incubated overnight with the test compounds at increasing concentrations tested in duplicate. Lithocolic acid (LCA) at 10 μM was used as a positive reference compound. The cAMP-dependent luciferase expression was followed using the BrightGlo reagent according to the manufacturer (Promega) instructions. Luminescence was read with a Mithras plate reader (Berthold). […] Concentration-response curves were fitted by a nonlinear regression analysis to a 4 parameter logistic equation.

[2] = target: mTGR5 (Mus musculus (Mouse), UniProt Q80SS6); test: TGR5/CRE Luciferase Assay (mTGR5); assay type: cell-based; conditions: for EC50: HEK 293 cells transiently co-transfected with pCMV AC6-TGR5m and pCRE TA-Luciferase reporter, overnight incubation; for mTGR5 % trans: HEK 293 luciferase reporter, percentage of the 10 μM LCA value
Protocol: as §1, §2

Chain of mTGR5 (Q80SS6 whole entry): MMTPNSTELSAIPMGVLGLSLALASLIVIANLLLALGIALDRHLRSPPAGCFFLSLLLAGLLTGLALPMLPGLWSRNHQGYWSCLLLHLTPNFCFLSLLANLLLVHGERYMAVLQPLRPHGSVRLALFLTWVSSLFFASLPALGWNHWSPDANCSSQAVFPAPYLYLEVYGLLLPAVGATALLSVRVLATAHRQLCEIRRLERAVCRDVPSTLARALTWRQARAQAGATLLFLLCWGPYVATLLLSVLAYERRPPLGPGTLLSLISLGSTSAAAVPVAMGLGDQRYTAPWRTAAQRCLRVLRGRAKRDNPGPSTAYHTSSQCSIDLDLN
Chain of hTGR5 (Q8TDU6 whole entry): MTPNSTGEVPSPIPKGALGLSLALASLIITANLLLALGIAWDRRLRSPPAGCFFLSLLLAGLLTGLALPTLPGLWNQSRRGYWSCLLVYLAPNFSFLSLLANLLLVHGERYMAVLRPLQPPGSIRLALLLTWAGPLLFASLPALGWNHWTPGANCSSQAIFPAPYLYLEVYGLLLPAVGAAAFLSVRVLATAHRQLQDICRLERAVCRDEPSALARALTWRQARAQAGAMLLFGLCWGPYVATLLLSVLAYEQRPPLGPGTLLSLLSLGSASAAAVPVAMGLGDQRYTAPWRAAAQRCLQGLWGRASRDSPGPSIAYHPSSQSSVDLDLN

EC50 [1] | hTGR5 % trans [1] | EC50 [2] | mTGR5 % trans [2] | Substance
160 nM | 85% | 18 nM | 98% | [2-[2,6-Difluoro-4-(2-methoxy-polyethyleneglycoxy)-benzylsulfanyl]-3-(4-fluoro-phenyl)-3H-imidazol-4-yl]-(3,4-dimethoxy-phenyl)-methyl-amine [Example 9]
580 nM | 60% | 29 nM | 85% | [2-[2,6-Difluoro-4-(2-methoxy-polyethyleneglycoxy)-benzylsulfanyl]-3-(4-fluoro-phenyl)-3H-imidazol-4-yl]-(3,4-dimethoxy-phenyl)-methyl-amine [Example 22]
1200 nM | 71% | 68 nM | 126% | [2-[2,6-Difluoro-4-(2-methoxy-polyethyleneglycoxy)-benzylsulfanyl]-3-(4-fluorophenyl)-3H-imidazol-4-yl]-(3,4-dimethoxy-phenyl)-methyl-amine [Example 24]

Substance | EC50 [1] | hTGR5 % trans [1] | EC50 [2] | mTGR5 % trans [2]
[2-[2,6-Difluoro-4-(2-methoxy-polyethyleneglycoxy)-benzylsulfanyl]-3-(4-fluoro-3-methoxy-phenyl)-3H-imidazol-4-yl]-(3,4-dimethoxy-phenyl)-methyl-amine [Example 23] | 330 nM | 103% | 26 nM | 108%
